This note sets out measurements from US20100209406A1, “BACILLUS STRAINS AND METHODS FOR REDUCING E. COLI DISEASE AND ENHANCING PERFORMANCE” (priority 2004, published 2010).

What all share (experiment): Antibiotic sensitivity assay (antibiotic discs)
Common to all, as to assay type: cell-based, Bacillus subtilis

One test deals with Bacillus strain 3A-P4. The settings on record: antibiotic disc on TSA with 1.0% 3A-P4, 32° C. overnight. The protocol: (§1) After the plates were solidified, the antibiotic discs were placed onto the agar surface. The plates were incubated at 32° C. overnight. Inhibitory zones were measured in millimeters.
For another test, the system named is Bacillus strain 22C-P1. The settings on record: antibiotic disc on TSA with 1.0% 22C-P1, 32° C. overnight. The protocol: as §1
The test system of the next test is Bacillus strain 15A-P4. The settings on record: antibiotic disc on TSA with 1.0% 15A-P4, 32° C. overnight. The protocol:
as §1

Residues, ends and D or L forms follow the SMILES beside them.

On to `CC[C@H](C)[C@H](N)C1=N[C@H](C(=O)N[C@@H](CC(C)C)C(=O)N[C@H](CCC(=O)O)C(=O)N[C@H](C(=O)N[C@H]2CCCCNC(=O)[C@H](CC(N)=O)NC(=O)[C@@H](CC(=O)O)NC(=O)[C@H](Cc3cnc[nH]3)NC(=O)[C@@H](Cc3ccccc3)NC(=O)[C@H]([C@@H](C)CC)NC(=O)[C@@H](CCCN)NC2=O)[C@@H](C)CC)CS1` [Bacitracin] (HELM PEPTIDE1{[CC[C@H](C)[C@H](N)C1=N[C@H](C(=O)[*:2])CS1].L.[dE].I.K.[NCCC[C@@H](N[*:1])C(=O)[*:2]].I.[dF].H.[dD].N}$PEPTIDE1,PEPTIDE1,5:R3-11:R2$$$V2.0), for which the “Inhibitory Zones” value in the test with Bacillus strain 3A-P4, with Bacillus strain 22C-P1 and in the test with Bacillus strain 15A-P4 was 8 Millimeters throughout.
On to `CCC[C@@H]1C[C@@H](C(=O)N[C@@H]([C@H]2O[C@H](SC)[C@H](O)[C@@H](O)[C@H]2O)[C@@H](C)O)N(C)C1` [Lincomycin], for which the “Inhibitory Zones” value with Bacillus strain 3A-P4 was 8 Millimeters; in the test on Bacillus strain 22C-P1, 8 Millimeters; in the test with Bacillus strain 15A-P4, 9 Millimeters.
With `CN(C)[C@@H]1C(=O)C(C(N)=O)=C(O)[C@@]2(O)C(=O)C3=C(O)c4c(O)cccc4[C@@](C)(O)[C@H]3[C@H](O)[C@@H]12` [Oxytetracycxyline], the “Inhibitory Zones” value was 24 Millimeters in the test on Bacillus strain 3A-P4, 24 Millimeters with Bacillus strain 22C-P1 and 14 Millimeters with Bacillus strain 15A-P4.
In the case of `CN(C)[C@@H]1C(O)=C(C(N)=O)C(=O)[C@@]2(O)C(O)=C3C(=O)c4c(O)cccc4[C@@](C)(O)[C@H]3C[C@@H]12` [Tetracycline], the “Inhibitory Zones” value in the test on Bacillus strain 3A-P4 amounted to 26 Millimeters; in the test with Bacillus strain 22C-P1 it was 21 Millimeters; with Bacillus strain 15A-P4, 14 Millimeters.
With Gentamycin, the entries for the “Inhibitory Zones” value in the test on Bacillus strain 3A-P4, in the test with Bacillus strain 22C-P1 and in the test on Bacillus strain 15A-P4 were 26 Millimeters, 22 Millimeters and 22 Millimeters, respectively.
Take Neomycin: the “Inhibitory Zones” value in the test on Bacillus strain 3A-P4 worked out at 16 Millimeters; in the test with Bacillus strain 22C-P1, 12 Millimeters; with Bacillus strain 15A-P4, 12 Millimeters.
Consider Penicillin, for which the entries for the “Inhibitory Zones” value in the test with Bacillus strain 3A-P4, with Bacillus strain 22C-P1 and with Bacillus strain 15A-P4 were 0 Millimeters, 13 Millimeters and 11 Millimeters, respectively.
